Data on 22 compounds can be found in patent US20190062305A1, “PYRIDYL OR PYRAZINYL COMPOUNDS CARRYING A METHYL-BOUND ALPHA-AMINO ACID AMIDE GROUP” (ABBVIE DEUTSCHLAND GMBH & CO. KG, priority 2015, published 2019).

Where a name gives a salt, the structure may show the parent alone.

One series deals with T1, 5-HT2C receptor (Homo sapiens, UniProt P28335).
T1 construct: host or cells: U2OS
Briefly: Human 5-HT2C functional assay (beta-arrestin2 recruitment, U2OS_HTR2C_β-Arrestin cells). The class given is cell-based. The conditions noted are these: for EC50: beta-arrestin2 recruitment, U2OS_HTR2C_β-Arrestin cells, 1.5 h incubation, read-out: EC50 5-HT2C (potency in functional assay); for % efficacy / Emax: relative efficacy vs response to 10 μM 5-HT or maximal 5-HT effect (100%). An outline of the steps: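 EC50 and relative efficacy came from 4-parameter variable-slope fits, normalised to 10 µM 5-HT or maximal 5-HT response (100%). Luminescent β-galactosidase enzyme-complementation signal was read after 1.5 h compound exposure in U2OS_HTR2C_β-Arrestin cells held in 1% serum medium from the prior day.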

Series [1] in a line: Metabolic stability in human liver microsomes, unbound intrinsic clearance (Cl int/fu mic). The class given is in vitro ADME. The conditions noted are these: 0.5 μM compound, NADPH; for Cl int, mic unb. (h) [l/h/kg] (unbound intrinsic clearance, human): human liver microsomes 0.25 mg/mL; for CLint scaled at 0.5 μM: human, liver microsomes, pH 7.4, human liver microsomes 0.25 mg/mL, read-out: Cl int, mic unb. (h) [l/h/kg] (unbound intrinsic clearance, human). An outline of the steps:
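Unbound intrinsic clearance is CLint divided by fu mic, with the unbound fraction measured by 4 h HTDialysis at 37 °C of 0.25 mg/ml microsomes spiked with 0.5 µM compound. For CLint, 0.5 µM compound was incubated with 0.25 mg/mL human microsomes and 1.0 mM NADPH (pH 7.4, 37 °C). Substrate loss over 30 min was measured by LC-MS/MS and t1/2 assumed first-order kinetics.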
(In general: Microsomes from liver hold many membrane-bound enzymes, among them those of drug oxidation.)

T1 sequence (P28335 33-458): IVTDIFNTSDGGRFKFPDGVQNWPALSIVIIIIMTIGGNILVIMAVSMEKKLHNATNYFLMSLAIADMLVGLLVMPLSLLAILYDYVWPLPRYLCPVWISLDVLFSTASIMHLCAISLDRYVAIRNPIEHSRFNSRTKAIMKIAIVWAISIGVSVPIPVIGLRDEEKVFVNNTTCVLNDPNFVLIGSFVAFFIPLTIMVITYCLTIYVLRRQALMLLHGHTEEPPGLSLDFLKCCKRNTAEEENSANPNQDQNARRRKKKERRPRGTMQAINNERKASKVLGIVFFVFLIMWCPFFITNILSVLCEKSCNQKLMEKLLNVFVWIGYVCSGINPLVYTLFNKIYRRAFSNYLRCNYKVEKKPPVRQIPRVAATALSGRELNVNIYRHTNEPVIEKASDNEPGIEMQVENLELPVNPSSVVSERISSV
T1 sequence (P32121 whole entry partner): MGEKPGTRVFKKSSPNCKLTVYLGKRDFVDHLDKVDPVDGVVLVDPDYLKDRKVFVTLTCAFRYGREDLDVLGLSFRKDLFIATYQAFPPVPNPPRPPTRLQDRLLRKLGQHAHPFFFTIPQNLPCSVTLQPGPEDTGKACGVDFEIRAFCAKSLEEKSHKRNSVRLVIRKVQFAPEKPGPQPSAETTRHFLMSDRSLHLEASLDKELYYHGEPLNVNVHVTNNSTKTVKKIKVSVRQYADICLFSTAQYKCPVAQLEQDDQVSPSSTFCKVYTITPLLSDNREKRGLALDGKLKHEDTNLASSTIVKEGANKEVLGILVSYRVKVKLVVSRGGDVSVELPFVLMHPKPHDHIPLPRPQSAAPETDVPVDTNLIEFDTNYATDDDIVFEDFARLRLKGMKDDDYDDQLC

By EC50 is commonly meant the midpoint of the concentration-response curve. With `COc1nc(N[C@H]2CC[C@@H](C(F)(F)F)CC2)c(F)cc1CNC(=O)[C@@H]1CCCN1.Cl` [Example 142, (2S)—N-[[5-Fluoro-2-methoxy-6-[[cis-4-(trifluoromethyl)cyclohexyl]amino]-3-pyridyl]methyl]pyrrolidine-2-carboxamide Hydrochloride], on 5-HT2C receptor, the EC50 is less than 20 nM and the “% efficacy” value is “+++ (>70%)”. Also, the “Cl int, mic unb. (h) [l/h/kg] (unbound intrinsic clearance, human)” value (“Cl int … (unbound intrinsic clearance, human)” for short) in series [1] is “++ (from 5 to <50 l/h/kg)”.
A word on the Emax: it is the size of the effect at its maximum, as opposed to the concentration needed. For the compound `COc1nc(N[C@H]2CC[C@H](C(F)(F)F)CC2)c(F)cc1CNC(=O)[C@@H]1CCCN1` [Example 143, (2S)—N-[[5-Fluoro-2-methoxy-6-[[trans-4-(trifluoromethyl)cyclohexyl]amino]-3-pyridyl]methyl]pyrrolidine-2-carboxamide], on 5-HT2C receptor, the EC50 was less than 20 nM and the Emax was more than 70%. For the same compound, the “Cl int … (unbound intrinsic clearance, human)” value in series [1] is recorded as “+ (from 50 to 500 l/h/kg)”.
As to `COc1nc(N[C@H]2CC[C@H](C(F)(F)F)CC2)c(F)cc1CNC(=O)[C@@H]1CCCN1.Cl` [Example 144, (2S)—N-[[5-Fluoro-2-methoxy-6-[[trans-4-(trifluoromethyl)cyclohexyl]amino]-3-pyridyl]methyl]pyrrolidine-2-carboxamide Hydrochloride], on 5-HT2C receptor, the 50% effective concentration (EC50) lay in the range of 20 to 200 nM and the “% efficacy” value is “+++ (>70%)”. For the same compound, in series [1], the “Cl int … (unbound intrinsic clearance, human)” value is given as “++ (from 5 to <50 l/h/kg)”.
Consider `COc1nc(Cc2ccccc2)c(F)cc1CNC(=O)[C@@H]1CCCN1` [Example 145, (2S)—N-[(6-Benzyl-5-fluoro-2-methoxy-3-pyridyl)methyl]pyrrolidine-2-carboxamide], for which, at 5-HT2C receptor, the EC50 is less than 20 nM and the Emax was more than 70%. In addition, the CLint scaled at 0.5 μM in series [1] is less than 5 L/h/kg.
As for `COc1nc(NC2CCC2)c(F)cc1CNC(=O)[C@@H]1CCCN1` [Example 146, (2S)—N-[[6-(Cyclobutylamino)-5-fluoro-2-methoxy-3-pyridyl]methyl]pyrrolidine-2-carboxamide; 2,2,2-trifluoroacetic Acid], on 5-HT2C receptor, the EC50 fell in the range of 20 to 200 nM and the maximum response (Emax) was more than 70%. Moreover, in series [1], the CLint scaled at 0.5 μM is less than 5 L/h/kg.
For the compound `COc1nc(N(C)C2CC2)c(F)cc1CNC(=O)[C@@H]1CCCN1` [Example 147, (2S)—N-[[6-[N-Cyclopropyl-N-methyl-amino]-5-fluoro-2-methoxy-3-pyridyl]methyl]pyrrolidine-2-carboxamide; 2,2,2-trifluoroacetic Acid], at 5-HT2C receptor, the EC50 is 200 to 1000 nM and the Emax is 50 to 70%. In addition, the CLint scaled at 0.5 μM in series [1] fell in the range of 5 to 50 L/h/kg.
In the case of `C=CCN(Cc1ccccc1)c1nc(OC)c(CNC(=O)[C@@H]2CCCN2)cc1F` [Example 150, (2S)—N-[[6-[N-Allyl-N-benzyl-amino]-5-fluoro-2-methoxy-3-pyridyl]methyl]-pyrrolidine-2-carboxamide Hydrochloride], at 5-HT2C receptor, the 50% effective concentration (EC50) lay within 20 to 200 nM and the Emax is more than 70%. Besides, the CLint scaled at 0.5 μM in series [1] lay within 5 to 50 L/h/kg.
With `COc1nc(N2CC(Oc3ccc(Cl)cc3)C2)c(F)cc1CNC(=O)[C@@H]1CCCN1` [Example 151, (2S)—N-[[6-[3-(4-Chlorophenoxy)azetidin-1-yl]-5-fluoro-2-methoxy-3-pyridyl]methyl]pyrrolidine-2-carboxamide; 2,2,2-trifluoroacetic Acid], at 5-HT2C receptor, the EC50 is 200 to 1000 nM and the Emax is more than 70%. For the same compound, the CLint scaled at 0.5 μM in series [1] was 50 to 500 L/h/kg.
For `COc1nc(NCC2(C(F)(F)F)CC2)c(F)cc1CNC(=O)[C@@H]1CCCN1` [Example 152, (2S)—N-[[5-Fluoro-2-methoxy-6-[[1-(trifluoromethyl)cyclopropyl]methylamino]-3-pyridyl]methyl]pyrrolidine-2-carboxamide; 2,2,2-trifluoroacetic Acid] the same measures were less than 20 nM, more than 70% and less than 5 L/h/kg.
For `COc1nc(N2CCCC(C(F)(F)F)C2)c(F)cc1CNC(=O)[C@@H]1CCCN1` (stereo partly drawn) [Example 153, (2S)—N-[[5-Fluoro-2-methoxy-6-[3-(trifluoromethyl)-1-piperidyl]-3-pyridyl]methyl]pyrrolidine-2-carboxamide; 2,2,2-trifluoroacetic Acid], at 5-HT2C receptor, the 50% effective concentration (EC50) was 20 to 200 nM and the Emax was more than 70%. Also, the CLint scaled at 0.5 μM in series [1] lay within 5 to 50 L/h/kg.
`COc1nc(N(C)C2CCC(F)(F)CC2)c(F)cc1CNC(=O)[C@@H]1CCCN1` [Example 154, (2S)—N-[[6-[N-(4,4-Difluorocyclohexyl)-N-methyl-amino]-5-fluoro-2-methoxy-3-pyridyl]methyl]pyrrolidine-2-carboxamide; 2,2,2-trifluoroacetic Acid]: on 5-HT2C receptor, the EC50 was 20 to 200 nM and the Emax was more than 70%. Besides, the CLint scaled at 0.5 μM in series [1] lay within 5 to 50 L/h/kg.
On the same counts, the results for `COc1nc(N2CCCCCC2)c(F)cc1CNC(=O)[C@@H]1CCCN1` [Example 155, (2S)—N-[[6-(Azepan-1-yl)-5-fluoro-2-methoxy-3-pyridyl]methyl]pyrrolidine-2-carboxamide; 2,2,2-trifluoroacetic Acid] are 20 to 200 nM, more than 70% and 5 to 50 L/h/kg.
`COc1nc(N2CCCC(F)(F)C2)c(F)cc1CNC(=O)[C@@H]1CCCN1` [Example 156, (2S)—N-[[6-(3,3-Difluoro-1-piperidyl)-5-fluoro-2-methoxy-3-pyridyl]methyl]-pyrrolidine-2-carboxamide; 2,2,2-trifluoroacetic Acid]: at 5-HT2C receptor, the EC50 was in the range of 20 to 200 nM and the Emax was 50 to 70%. The CLint scaled at 0.5 μM in series [1] is less than 5 L/h/kg.
On the same counts, the results for `COc1nc(C2CCCOC2)c(F)cc1CNC(=O)[C@@H]1CCCN1` (stereo partly drawn) [Example 158, (2S)—N-[(5-Fluoro-2-methoxy-6-tetrahydropyran-3-yl-3-pyridyl)methyl]-pyrrolidine-2-carboxamide Hydrochloride] are 20 to 200 nM, more than 70% and less than 5 L/h/kg.
On to `COc1nc(C2CCOCC2)c(F)cc1CNC(=O)[C@@H]1CCCN1` [Example 159, (2S)—N-[(5-Fluoro-2-methoxy-6-tetrahydropyran-4-yl-3-pyridyl)methyl]-pyrrolidine-2-carboxamide Hydrochloride], for which, on 5-HT2C receptor, the EC50 was 200 to 1000 nM and the maximal response (Emax) was more than 70%. The CLint scaled at 0.5 μM in series [1] is less than 5 L/h/kg.
On the same counts, the results for `COc1nc(N2CCC(F)CC2)c(F)cc1CNC(=O)[C@@H]1CCCN1` [Example 160, (2S)—N-[[5-Fluoro-6-(4-fluoro-1-piperidyl)-2-methoxy-3-pyridyl]methyl]-pyrrolidine-2-carboxamide; 2,2,2-trifluoroacetic Acid] are 20 to 200 nM, 50 to 70% and less than 5 L/h/kg.
With `COc1nc(N2CCCC(F)C2)c(F)cc1CNC(=O)[C@@H]1CCCN1` (stereo partly drawn) [Example 161, (2S)—N-[[5-Fluoro-6-(3-fluoro-1-piperidyl)-2-methoxy-3-pyridyl]methyl]-pyrrolidine-2-carboxamide; 2,2,2-trifluoroacetic Acid], at 5-HT2C receptor, the half-maximal effective concentration (EC50) was 20 to 200 nM and the Emax lay in the range of 50 to 70%. The CLint scaled at 0.5 μM in series [1] was less than 5 L/h/kg.
For `COc1nc(N2CCC(F)C2)c(F)cc1CNC(=O)[C@@H]1CCCN1` (stereo partly drawn) [Example 162, (2S)—N-[[5-Fluoro-6-(3-Fluoropyrrolidin-1-yl)-2-methoxy-3-pyridyl]methyl]-pyrrolidine-2-carboxamide; 2,2,2-trifluoroacetic Acid] the same measures were 20 to 200 nM, 50 to 70% and 5 to 50 L/h/kg.
For `COc1nc(N2CCC(C(F)(F)F)C2)c(F)cc1CNC(=O)[C@@H]1CCCN1` (stereo partly drawn) [Example 163, (2S)—N-[[5-Fluoro-2-methoxy-6-[3-(trifluoromethyl)pyrrolidin-1-yl]-3-pyridyl]methyl]pyrrolidine-2-carboxamide; 2,2,2-trifluoroacetic Acid] the same measures were less than 20 nM, more than 70% and 5 to 50 L/h/kg.
Regarding `COc1nc(N2CCC(F)(F)C2)c(F)cc1CNC(=O)[C@@H]1CCCN1` [Example 164, (2S)—N-[[6-(3,3-Difluoropyrrolidin-1-yl)-5-fluoro-2-methoxy-3-pyridyl]methyl]pyrrolidine-2-carboxamide; 2,2,2-trifluoroacetic Acid], at 5-HT2C receptor, the concentration for a half-maximal effect (EC50) lay in the range of 20 to 200 nM and the maximal response (Emax) is more than 70%. Besides, in series [1], the CLint scaled at 0.5 μM was less than 5 L/h/kg.
On the same counts, the results for `COc1nc(N2CCC(F)(F)CC2)c(F)cc1CN(C)C(=O)[C@@H]1CCCN1` [Example 165, (2S)—N-[[6-(4,4-Difluoro-1-piperidyl)-5-fluoro-2-methoxy-3-pyridyl]methyl]-N-methyl-pyrrolidine-2-carboxamide; 2,2,2-trifluoroacetic Acid] are 20 to 200 nM, 50 to 70% and less than 5 L/h/kg.
On the same counts, the results for `COc1nc(NC2CCC(F)(F)CC2)c(F)cc1CN(C)C(=O)[C@@H]1CCCN1` [Example 166, (2S)—N-[[6-[(4,4-Difluorocyclohexyl)amino]-5-fluoro-2-methoxy-3-pyridyl]methyl]-N-methyl-pyrrolidine-2-carboxamide; 2,2,2-trifluoroacetic Acid] are 20 to 200 nM, 50 to 70% and less than 5 L/h/kg.
